US20100215710A1, “Beta-2 Adrenergic Receptor Agonists and Antagonists and Modulation of Wound Healing” (The Regents of the University of California, priority 2005, published 2010)

Experiments:
[1] = system: phospho-ERK; experiment: Phospho-ERK immunolocalization in keratinocytes; type: cell-based, human
Procedure: Sterile glass cover-slips (Fisher Scientific, Pittsburgh, Pa.) were transferred into 12 well dishes and collagen-coated with 60 μg/ml collagen I in KGM for 1 hour at 37° C. Cover-slips were washed three times with KGM and 3×10^4 cells were added per well and allowed to attach overnight. Cells were untreated, treated with 1 μM β-AR agonist for 15 minutes, OA (10 nM) for 45 minutes, or pre-treated with OA (10 nM) for 30 minutes prior to the addition of 1 μM β-AR agonist for 15 minutes. All steps were performed at room temperature unless otherwise noted. Cover slips were washed twice in PBS and fixed for 10 minutes in 4% paraformaldehyde. Cover-slips were washed twice in PBS between each step. Cells were permeabilized for 5 minutes with 0.1% Triton-X-100/PBS, blocked with 5% goat serum/PBS for 20 minutes, primary monoclonal anti-vinculin antibody (Sigma, St. Louis, Mo.) or anti-phospho-ERK antibody (Cell Signaling Technology, Beverly, Mass.) were added drop-wise in 1% goat serum/PBS (1:100) and incubated for 1 hour at 37° C. A goat anti-mouse cy3 (Jackson labs, West Grove, Pa.) (1:100) antibody was then added in 1% goat serum/PBS for 1 hour at 37° C. Alexa 488-phalloidin (Molecular Probes, Eugene, Oreg.) (1:40) in PBS was added to the vinculin-stained cover-slips for 20 minutes. […]

[2] = system: adult human CECs; experiment: Immunofluorescent staining of actin and vinculin, adult human CECs; type: cell-based
Procedure: Sterile glass cover slips were transferred into 12 well dishes and collagen-coated with 60 μg/ml collagen I in PBS for 1 hour at 37° C. Cover slips were washed three times with CGM and 3×10^4 adult human CECs were added per well and allowed to attach for 3 hours or overnight. Cells were untreated (control […]), treated with 20 μM β-AR antagonist, 10 nM or 1 μM β-AR agonist for 15 minutes, 100 nM OA for 45 minutes, or pre-treated with 100 nM OA for 30 minutes prior to the addition of 10 nM or 1 μM β-AR agonist for 15 minutes. […]
Cells plated in the absence of β-AR agonist are polarized and crescent shaped with a broad lamellipodium, characteristic of the migratory phenotype (Ridley et al. (2003) “Cell migration: integrating signals from front to back” Science 302:1704-9). […] Image J was used to measure the actin and vinculin associated fluorescence by measuring the mean pixel intensity (MPI) of 25 cells from each condition. Control cells have an MPI of 40.3+/−4.8. β-AR agonist treatment has no significant effect on actin and vinculin associated fluorescence; the MPI of β-AR agonist-treated cells is 44.6+/−2.

[3] = system: human keratinocytes; experiment: Keratinocyte proliferation assay (β-AR agonist, OA); type: cell-based
Procedure: Keratinocytes were released from the tissue culture plate by treatment with 0.25% trypsin/EDTA (Gibco, Grand Island, N.Y.), resuspended in KGM and counted using a haemocytometer. Cells were either untreated or pre-treated with okadaic acid (OA) (10 nM) for 45 minutes prior to β-AR agonist (1 μM) addition. 5×10^4 cells were plated per well in a 12 well plate in triplicate in the presence or absence of 1 μM β-AR agonist, 10 nM OA or both. Triplicate wells were harvested and counted on days 2, 4, 6, 8. The medium was changed every day. Significance was taken as p<0.01, using Student's t test (unpaired) to compare the means of the cell populations.
5×10^4 […] keratinocytes were plated per well in a 12 well plate in triplicate in the presence or absence of β-AR agonist (1 μM) (FIG. 2 Panel A; control represented by circles, 1 μM β-AR agonist by squares), or pre-treated with 10 nM OA for 30 minutes prior to the addition of OA alone or both OA and β-AR agonist, (FIG. 2 Panel B; OA represented by X's and OA/β-AR agonist by stars). Cells were harvested and counted on days 2, 4, 6, 8 as described. The data are representative of three independent experiments with at least two different keratinocyte strains. Values plotted are means+/−SEM. *P<0.01 between β-AR agonist and controls.

Compound: C=C1[C@@H](O)[C@@H]2O[C@]3(CC[C@H](/C=C/[C@@H](C)[C@@H]4CC(C)=C[C@@]5(O[C@H](C[C@@](C)(O)C(=O)O)CC[C@H]5O)O4)O3)CC[C@H]2O[C@@H]1[C@@H](O)C[C@H](C)[C@H]1O[C@@]2(CCCCO2)CC[C@H]1C [OA, okadaic acid]
- effect on level of ERK phosphorylation or localization ([1]; OA 10 nM alone): no effect
- effect on agonist-induced loss of lamellipodial phospho-ERK localization and nuclear/peri-nuclear decrease ([1]; OA 10 nM pre-treatment prior to 1 μM β-AR agonist): prevents
- effect on cytoskeletal organization ([2]; OA 100 nM alone): no effect
- effect on β2-AR-mediated alterations in cytoskeletal organization ([2]; OA 100 nM pre-treatment prior to β-AR agonist 10 nM): prevents
- effect on keratinocyte proliferation ([3]; OA 10 nM alone): no effect
- effect on β2-AR-mediated decrease in proliferation ([3]; OA 10 nM pre-treatment, then OA plus 1 μM β-AR agonist): completely prevents
